Where two headings read alike, the source gives them in different places.
Columns and labels:
human hepatocytes = experiment: Metabolic stability of test compound in human hepatocyte cell; format: in vitro ADME; details: human hepatocytes
Method: • 1. The cryopreserved human hepatocytes cells were thawed in 37° C. water bath and diluted with pre-warmed incubation medium to a working cell density of 1×10^6 viable cells/mL. • 2. The 198 μL pre-warmed hepatocyte suspensions were spiked with 2 μL of 100 μM compound or reference compound(Verapamil) at a final concentration of 1.0 μM in a 96-well plate. The plate was incubated at 37° C., 900 rpm. All incubations will be performed in singlet. • 3. 25 μL aliquots of well contents were collected at time points of 0, 15, 30, 60, 90 and 120 minutes. The reactions were stopped by the addition of 6-fold volumes of cold acetonitrile with internal standards. • 4. After centrifugation for 25 minutes at 3,220 g. Aliquot of 100 μL of the supernatant was mixed with 100 μL of ultra-pure H2O and then used for LC-MS/MS analysis.
All calculations were carried out using Microsoft Excel. Peak areas were determined from extracted ion chromatograms. Determine the in vitro half-life (t1/2) of parent compound by regression analysis of the percent parent disappearance vs. time curve.
The in vitro half-life (in vitro t1/2) is determined from the slope value k:
Conversion of the in vitro t1/2(in min) into the in vitro intrinsic clearance (in vitro CLint, in μL/min/10^6 cells) is done using the following equation:
V=incubation volume (0.2 mL);
N=number of hepatocytes per well (0.2×10^6 cells).
Conversion of the in vitro t1/2(in min) into the scale-up intrinsic clearance (CLint(liver), in mL/min/kg) was done using the following equation:
CLint(liver)=kV/N×scaling factor

[1] = Pharmacokinetic and tissue distribution study via intravenous and oral administration in male C57BL/6 mice; format: in vivo
Method: Male C57BL/6 mice with a weight range of 20-25 g (Hua Fu Kang, China) were used. Animals were fasted overnight and free access to food 4 hours after dosing.
Test compound (correction factor: 1.00) was dissolved in a 20% hydroxypropyl-β-cyclodextrin (HP-β-CD) at a final concentration of 1 mg/ml for the intravenous (IV) formulation and at final concentrations of 0.5 mg/ml for the oral (PO) formulation. The intravenous formulation was dosed at 2 ml/kg to obtain a dose of 2 mg/kg. The oral formulations were dosed at 10 ml/kg to obtain final doses of 5 mg/kg.
Blood samples were taken at 7 and 20 min, 1, 2, 4, 8 and 24 h after intravenous dose administration. Blood and liver samples were taken at 30 min, 1, 2, 4, 8, 12 and 24 h after oral dose administration.
Approximately 0.020 mL blood will be collected into BD blood collection tubes containing K3-EDTA at each time point. Samples were placed immediately on melting ice and plasma was obtained following centrifugation at 4° C. for 5 minutes at approximately 4000×g. Plasma samples were adjusted to pH 3-4 by phosphoric acid and stored at −75±15° C. prior to analysis. The whole process was completed within 1 hour.
Liver samples were collected at adopted time point, and the vial containing the tissues sample was snap-frozen in liquid nitrogen right away and kept at −75±15° C. prior to analysis. All liver samples were weighed and homogenized with phosphoric acid solution (pH to 3-4) by liver weight (g) to phosphoric acid solution volume (mL) ratio 1:4 before analysis.
Plasma and liver samples were analyzed using LC-MS/MS methods. The lower limit of quantification (LLOQ) for plasma was 1.0 ng/ml and for liver was 2.5 ng/g. A non-compartmental analysis using the “Linear up log down” rule was used for all data. A limited pharmacokinetic analysis was performed using Phoenix™ Professional (Version 6.1).

HepG2.2.15 cells = experiment: Cytotoxicity determination in HepG2.2.15 cells (CCK-8 assay); format: cell-based; details: 6 days treatment, CCK-8, highest concentration 100 uM
Method: (§1) HepG2.2.15 (the HepG2.2.15 cell line can be produced by transfection of the HepG2 cell line as described in Sells, Chen, and Acs 1987 (Proc. Natl. Acad. Sci. USA 84: 1005-1009), and the HepG2 cell line is available from ATCC® under number HB-8065™)
(§2) HepG2.2.15 cells were plated into 96-well plate in 2% FBS culture medium at the density of 40,000 cells/well and 5,000cells/well for HBV inhibitory activity and cytotoxicity determination, respectively. After incubation at 37° C., 5% CO2 overnight, cells were treated with medium containing compounds for 6 days with medium and compounds refreshed after 3 days of treatment. Each compound was tested in a 1:3 serial dilutions at 8 different concentrations in triplicate. The highest concentration of the compounds was 10 uM or 1 uM for anti-HBV activity assay and 100 uM for cytotoxicity determination.
(§3) Cell viability was determined by CCK-8 assay. After 6 days of compounds treatment, 20 μl CCK-8 reagents were added to each well of cytotoxicity assay plates. Cell plates were incubated at 37° C., 5% CO2 for 2.5 h. The absorbance at 450 nm wavelength and the absorbance at 630 nm wavelength as reference was measured.
(§4) EC50 and CC50 values are calculated by the […] PRISM software.

HBV = experiment: Anti-viral assay in HepG2.2.15 cells: anti-HBV activity, HBV DNA in culture medium by qPCR; format: cell-based
Method: as §1, §2
The change of HBV DNA level induced by the compounds was assessed by quantitative real-time polymerase chain reaction (qPCR). Briefly, the HBV DNA in the culture medium was extracted using QIAamp 96 DNA Blood Kit according to the manual and then quantified by real-time PCR assay using the primers and probe in the table 1 below.
as §4

[2] = Cytotoxicity determination in HepG2.2.15 cells (CCK-8 assay); format: cell-based; details: human, 6 days treatment, CCK-8, highest concentration 100 uM
Method: as §1, §2, §3, §4

[3] = mice plasma, IV, nominal 2 mg/kg
[4] = HepG2.2.15 cells, 6 days treatment, HBV DNA by qPCR, read-out: EC50
[5] = Hepatitis B virus, HepG2.2.15, 144 h, HepG2.2.15 cells, 6 days treatment, HBV DNA by qPCR, read-out: EC50

Compound | CC50 (HepG2.2.15 cells) [nM] | EC50 (HBV; [4]) [nM] | CC50 at 6 days [2] [nM] | further results
CCOC(=O)C1=C(CN2CCOCC2)NC(c2nccs2)=NC1c1ccc(F)cc1Br (stereo not shown) [Reference 1, GLS4, reference compound] | – | – | – | T½ (human hepatocytes; 1.0 μM, 0-120 min): 15.3 min; Clint (liver) (human hepatocytes; scale-up intrinsic clearance, scaling factor 2544.3): 115.3 mL/min/kg; Liver AUCinf/Dose ([1]; mice liver, PO): 69.2 ng·kg·h/g/mg; Liver Cmax/Dose ([1]; mice liver, PO): 5.1 kg·ng/mg/mL; IV AUCinf/Dose [1, 3]: 232.5 ng·kg·h/mg/mL; IV Cl [1, 3]: 73.9 mL/min/kg; PO AUCinf/Dose ([1]; mice plasma, PO): 17.3 ng·kg·h/mg/mL; PO Cmax ([1]; mice plasma, PO, dose per compound in table (5.28-9.95 mg/kg)): 14.5 ng/mL; F ([1]; mice, PO vs IV): 7.5%
CCOC(=O)C1=C(CN2CCN3C(=S)N(CC(C)(C)C(=O)O)CC3C2)NC(c2nccs2)=N[C@H]1c1cccc(F)c1C (single isomer, unassigned) [Compound 1B] | 22400 | 43 | – | –
CCOC(=O)C1=C(CN2CCN3C(=S)N(CC4(C(=O)O)CC4)CC3C2)NC(c2nccs2)=N[C@H]1c1cccc(F)c1C (single isomer, unassigned) [Compound 9B] | 14600 | 0.7 | – | –
CCOC(=O)C1=C(CN2CCN3C(=S)N([C@@H]4CC[C@H](C(=O)O)C4)CC3C2)NC(c2nccs2)=N[C@H]1c1cccc(F)c1C (single isomer, unassigned) [Compound 24B] | 9600 | 1 | – | –
CCOC(=O)C1=C(CN2CCN3C(=S)N(CC(C)C(=O)O)C[C@@H]3C2)NC(c2nccs2)=N[C@H]1c1cccc(F)c1C (single isomer, unassigned) [Compound 27B] | 25300 | 2.6 | – | –
COC(=O)C1=C(CN2CCN3C(=S)N(CC(C)(C)C(=O)O)CC3C2)NC(c2nccs2)=NC1c1ccc(F)cc1Cl (single isomer, unassigned) [Compound 4A, 3-(7-((6-(2-chloro-4-fluorophenyl)-5-(methoxycarbonyl)-2-(thiazol-2-yl)-3,6-dihydropyrimidin-4-yl)methyl)-3-thioxohexahydroimidazo[1,5-a]pyrazin-2(3H)-yl)-2,2-dimethylpropanoic acid] | 52800 | 49 | – | –
CCOC(=O)C1=C(CN2CCN3C(=S)N(C)C[C@@H]3[C@H]2C(=O)O)NC(c2nccs2)=N[C@H]1c1cccc(F)c1Cl (relative stereo) [Compound 19A, (trans)-7-((6-(2-chloro-3-fluorophenyl)-5-(ethoxycarbonyl)-2-(thiazol-2-yl)-3,6-dihydropyrimidin-4-yl)methyl)-2-methyl-3-thioxooctahydro-imidazo[1,5-a]pyrazine-8-carboxylic acid] | – | – | 89900 | EC50 (HBV; [5]): 40.5 nM
CCOC(=O)C1=C(CN2CCN3C(=S)N(C)C[C@@H]3[C@H]2C(=O)O)NC(c2nccs2)=N[C@H]1c1cccc(F)c1C (single isomer, unassigned) [Compound 35B] | 46600 | 1.1 | – | –
CCOC(=O)C1=C(CN2CCN3C(=S)N([C@H]4CC[C@@H](C(=O)O)C4)CC3C2)NC(c2nccs2)=N[C@H]1c1cccc(F)c1C (single isomer, unassigned) [Compound 24D] | 9400 | 35 | – | –
CCOC(=O)C1=C(CN2CCN3C(=S)N(CC(C)(C)C(=O)O)CC3C2)NC(c2nccs2)=NC1c1cccc(F)c1Cl (single isomer, unassigned) [Compound 3A, 3-(7-((6-(2-chloro-3-fluorophenyl)-5-(ethoxycarbonyl)-2-(thiazol-2-yl)-3,6-dihydropyrimidin-4-yl)methyl)-3-thioxohexahydroimidazo[1,5-a]pyrazin-2(3H)-yl)-2,2-dimethylpropanoic acid] | – | 19 | 25200 | –
CCOC(=O)C1=C(CN2CCN3C(=S)N(C[C@@H](C)C(=O)O)C[C@@H]3C2)NC(c2ncoc2C)=NC1c1cccc(F)c1C (single isomer, unassigned) [Compound 32B, 3-(7-((5-(Ethoxycarbonyl)-6-(3-fluoro-2-methylphenyl)-2-(5-methyloxazol-4-yl)-3,6-dihydropyrimidin-4-yl)methyl)-3-thioxohexahydroimidazo[1,5-a]pyrazin-2(3H)-yl)-2-methylpropanoic acid] | 42500 | 27.4 | – | –
CCOC(=O)C1=C(CN2CCN3C(=NC(C)=O)N(CC(C)(C)C(=O)O)CC3C2)NC(c2nccs2)=N[C@H]1c1cccc(F)c1C (stereo partly drawn) [Compound 8, (S)-3-(3-(Acetylimino)-7-((5-(ethoxycarbonyl)-6-(3-fluoro-2-methylphenyl)-2-(thiazol-2-yl)-3,6-dihydropyrimidin-4-yl)methyl)hexahydroimidazo[1,5-a]pyrazin-2(3H)-yl)-2,2-dimethylpropanoic acid] | – | – | > 100000 | EC50 (HBV; Hepatitis B virus, HepG2.2.15, 144 h): 790 nM
COC(=O)C1=C(CN2CCN3C(=S)N(CC(C)(C)C(=O)O)C[C@@H]3C2)NC(c2ncoc2C)=N[C@H]1c1ccc(F)cc1Cl (single isomer, unassigned) [Compound 34A, 3-(7-((6-(2-Chloro-4-fluorophenyl)-5-(methoxycarbonyl)-2-(5-methyloxazol-4-yl)-3,6-dihydropyrimidin-4-yl)methyl)-3-thioxohexahydroimidazo[1,5-a]pyrazin-2(3H)-yl)-2,2-dimethylpropanoic acid] | – | – | 47400 | EC50 (HBV; [5]): 7.9 nM
CCOC(=O)C1=C(CN2CCN3C(=S)N(CC(C)(C)C(=O)O)CC3C2)NC(c2nccs2)=NC1c1ccc(F)c(F)c1Cl (stereo not shown) [Compound 14, 3-(7-((6-(2-Chloro-3,4-difluorophenyl)-5-(ethoxycarbonyl)-2-(thiazol-2-yl)-3,6-dihydropyrimidin-4-yl)methyl)-3-thioxohexahydroimidazo[1,5-a]pyrazin-2(3H)-yl)-2,2-dimethylpropanoic acid] | – | – | 10600 | EC50 (HBV; [5]): 5.9 nM
CCOC(=O)C1=C(CN2CCN3C(=S)N(CC(CC)C(=O)O)CC3C2)NC(c2nccs2)=N[C@H]1c1cccc(F)c1C (stereo partly drawn) [Compound 17, 2-((7-(((S)-5-(ethoxycarbonyl)-6-(3-fluoro-2-methylphenyl)-2-(thiazol-2-yl)-3,6-dihydropyrimidin-4-yl)methyl)-3-thioxohexahydroimidazo[1,5-a]pyrazin-2(3H)-yl)methyl)butanoic acid] | – | – | 13200 | EC50 (HBV; [5]): 5.6 nM
